The text below walks through data of EP2377861B1, “Water-soluble bis-triazinyl-pyridines, bipyridines and terpyridines, synthesis and use of same” (Karlsruher Institut für Technologie, priority 2010, dated 2011).

The nature of data set [1]: Extraction with TODGA from HNO3, complexing agent in aqueous phase, distribution ratio by gamma spectrometry. The following applies: for DEu(III) / DAm(III): 0.2 mol/L TODGA + 5 % vol. 1-Octanol in Kerosin; for SFEu(III)/Am(III): separation factor DEu(III)/DAm(III). From the text:
(§1) D2EHPA bestimmt. Aus allen Versuchen wurden die Verteilungsverhältnisse (Verhältnis der organischen zur wässrigen Konzentration) von Am(III) und Eu(III) mittels Gamma-Spektrometrie bestimmt. Die Berechnung der Verteilungsverhältnisse DM ergibt sich aus den Zählraten des Gammazählers, welcher die radioaktiven ^241Am (III) - und ^152Eu(III) - Isotope in volumengleichen Proben der wässrigen bzw. der organischen Phase erfasst gem. der Gleichung DM=[M]org/[M]aq, wobei die Konzentration des Metalls M aus [M]=Zählrate/Volumen berechnet wird.
Es wurden […] und ^152Eu(III) (je ca. 1 kBq/mL) aus 0.09 / 0.18 / 0.44 / 0.88 / 1.8 mol/L HNO3 in eine organische Phase bestehend aus (0.2 mol/L TODGA + 5 % vol. 1-Octanol in Kerosin) extrahiert.
Es wurden ^241Am(III) und ^152Eu(III) (je ca. 1 kBq/mL) aus 0.5 mol/L HNO3 in eine organische Phase bestehend aus (0.2 mol/L TODGA + 5 % vol. 1-Octanol in Kerosin) extrahiert. Die wässrige Phase enthielt entweder 0 mmol/L oder 10 mmol/L SO3-Ph-BTBP.

Data set [2] in a line: Back-extraction from loaded TODGA organic phase (simulated PUREX raffinate) into aqueous complexing agent solution. Particulars: after back-extraction into 10 mmol/L SO3-Ph-BTP in water.
Excerpt: as §1
Einem inaktiven Simulat eines PUREX-Raffinats wurden ^241Am(III) und ^I52Eu(III) (je ca. 1 kBq/mL) zugegeben. Es wurde in eine organische Phase bestehend aus (0.2 mol/L TODGA + 5 % vol. 1-Octanol in Kerosin) extrahiert.

Data set [3] is described as follows: Extraction with D2EHPA from HNO3, complexing agent in aqueous phase, distribution ratio by gamma spectrometry. Particulars: for DAm(III) / DEu(III): 10 mmol/L SO3-Ph-BTP in aqueous phase, 0.1 mol/L D2EHPA in Kerosin; for SFEu(III)/Am(III): separation factor DEu(III)/DAm(III), D2EHPA.
Excerpt: as §1
Es wurden ^241Am(III) und ^152Eu(III) (je ca. 1 kBq/mL) aus 0.045 / 0.09 / 0.18 / 0.44 mol/L HNO3 in eine organische Phase bestehend aus (0.1 mol/L D2EHPA in Kerosin) extrahiert.

A further data set in a line: Solubility in water. The data set is classed as physicochemical.
Setting [4] is: loaded 0.2 mol/L TODGA + 5 % vol. 1-Octanol in Kerosin.
Where [5] appears, read: 10 mmol/L SO3-Ph-BTBP in aqueous phase, 0.5 mol/L HNO3.

Bounds are passed on as bounds.

Take “2,6-Bis(5,6-di(sulfophenyl)-1,2,4-triazin-3-yl)pyridine [SO3-Ph-BTP]”: the “DEu(III)” value in data set [1] (10 mmol/L SO3-Ph-BTP in aqueous phase, 0,09 mol/L HNO3) is 1.2; in data set [1] (10 mmol/L SO3-Ph-BTP in aqueous phase, 0,18 mol/L HNO3), 11.9; in data set [1] (10 mmol/L SO3-Ph-BTP in aqueous phase, 0,44 mol/L HNO3), 180; in data set [1] (10 mmol/L SO3-Ph-BTP in aqueous phase, 0,88 mol/L HNO3), > 10^3; in data set [1] (10 mmol/L SO3-Ph-BTP in aqueous phase, 1,8 mol/L HNO3) it was > 10^3; in data set [2] (setting [4]), 49. The “DEu(III)” value is recorded as 5.3 in data set [3] (0.045 mol/L HNO3), 1.4 in data set [3] (0.09 mol/L HNO3), 0.37 in data set [3] (0.18 mol/L HNO3) and 0.06 in data set [3] (0.44 mol/L HNO3). Besides, the “Trennfaktor SFEu(III)/Am(III)” value in data set [1] (10 mmol/L SO3-Ph-BTP, ca. 0.1-0.5 mol/L HNO3, TODGA) is 500-1000; in data set [2] (loaded TODGA phase) it was 830; in data set [3] (10 mmol/L SO3-Ph-BTP, D2EHPA in Kerosin), over 3000. Also, the “DAm(III)” value in data set [1] (10 mmol/L complexing agent in aqueous phase, 0,09 mol/L HNO3) is recorded as 1.1·10^-3; in data set [1] (10 mmol/L complexing agent in aqueous phase, 0,18 mol/L HNO3), 0.014; in data set [1] (10 mmol/L complexing agent in aqueous phase, 0,44 mol/L HNO3) it was 0.35; in data set [1] (10 mmol/L complexing agent in aqueous phase, 0,88 mol/L HNO3) it was 4.5; in data set [1] (10 mmol/L complexing agent in aqueous phase, 1,8 mol/L HNO3), 90; in data set [2] (setting [4]) it was 0.059. Also, the “DAm(III)” value in data set [3] (0.045 mol/L HNO3) is 1.10^-3; in data set [3] (0.09 mol/L HNO3), 4.10^-4; in data set [3] (0.18 mol/L HNO3), 5.10^-5; in data set [3] (0.44 mol/L HNO3), “< d.l”. The “SFEu(III)/Am(III)” value is reported as 1100 in data set [1] (10 mmol/L complexing agent, 0,09 mol/L HNO3, TODGA); 850 in data set [1] (10 mmol/L complexing agent, 0,18 mol/L HNO3, TODGA); 510 in data set [1] (10 mmol/L complexing agent, 0,44 mol/L HNO3, TODGA); over 220 in data set [1] (10 mmol/L complexing agent, 0,88 mol/L HNO3, TODGA); over 11 in data set [1] (10 mmol/L complexing agent, 1,8 mol/L HNO3, TODGA); 5200 in data set [3] (10 mmol/L SO3-Ph-BTP, 0.045 mol/L HNO3). Further, the “SFEu(III)/Am(III)” value is reported as 3400 in data set [3] (10 mmol/L SO3-Ph-BTP, 0.09 mol/L HNO3) and 7000 in data set [3] (10 mmol/L SO3-Ph-BTP, 0.18 mol/L HNO3).

Consider “6,6'-Bis(5, 6-di(sulfophenyl)-1, 2, 4-triazin-3-yl)-2,2'-bipyridine [SO3-Ph-BTBP]”, for which, in data set [1] (setting [5]), the “DAm(III)” value is recorded as 0.33 and the “DEu(III)” value is recorded as 150. Further, the “SFEu(III)/Am(III)” value in data set [1] (10 mmol/L SO3-Ph-BTBP, 0.5 mol/L HNO3, TODGA) came out at 450. The “Löslichkeit in Wasser” value in “Solubility in water” is reported as over 0.1 mol/L.
